Assay results published in PubChem BioAssay (NCI).
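All cell lines were grown in 96-well plates and treated with compound for 48 hours. GI50: concentration for 50% inhibition of growth. At the TGI there is no net growth.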

How the values were obtained:
Assay in all cases: NCI anticancer screen, dose series, 48 h
HCC-2998 colon = system: HCC-2998 colon
SNB-75 CNS = system: SNB-75 CNS
HCT-15 colon = system: HCT-15 colon
MALME-3M melanoma = system: MALME-3M melanoma
DU-145 prostate = system: DU-145 prostate
EKVX NSCLC = system: EKVX NSCLC
SW-620 colon = system: SW-620 colon
MOLT-4 leukemia = system: MOLT-4 leukemia
LOX IMVI melanoma = system: LOX IMVI melanoma
NCI/ADR-RES ovarian = system: NCI/ADR-RES ovarian
T-47D breast = system: T-47D breast
UO-31 renal = system: UO-31 renal
RXF 393 renal = system: RXF 393 renal
MDA-MB-231 breast = system: MDA-MB-231 breast
ACHN renal = system: ACHN renal
SF-539 CNS = system: SF-539 CNS
SK-OV-3 ovarian = system: SK-OV-3 ovarian
MDA-MB-435 = system: MDA-MB-435
SR leukemia = system: SR leukemia
HCT-116 colon = system: HCT-116 colon
SF-295 CNS = system: SF-295 CNS
MCF7 breast = system: MCF7 breast
SK-MEL-5 melanoma = system: SK-MEL-5 melanoma
HL-60(TB) leukemia = system: HL-60(TB) leukemia
SK-MEL-28 melanoma = system: SK-MEL-28 melanoma
BT-549 breast = system: BT-549 breast
OVCAR-4 ovarian = system: OVCAR-4 ovarian
KM12 colon = system: KM12 colon
M14 melanoma = system: M14 melanoma
K-562 leukemia = system: K-562 leukemia
HOP-62 NSCLC = system: HOP-62 NSCLC
COLO 205 colon = system: COLO 205 colon
786-0 renal = system: 786-0 renal
NCI-H522 lung = system: NCI-H522 lung
UACC-62 melanoma = system: UACC-62 melanoma
SN12C renal = system: SN12C renal
SF-268 CNS = system: SF-268 CNS
HS 578T breast = system: HS 578T breast
NCI-H460 lung = system: NCI-H460 lung
HT29 colon = system: HT29 colon
RPMI-8226 leukemia = system: RPMI-8226 leukemia
NCI-H226 lung = system: NCI-H226 lung
TK-10 renal = system: TK-10 renal
A549 NSCLC = system: A549 NSCLC
CCRF-CEM leukemia = system: CCRF-CEM leukemia
SK-MEL-2 melanoma = system: SK-MEL-2 melanoma
OVCAR-5 ovarian = system: OVCAR-5 ovarian
U251 CNS = system: U251 CNS
IGROV1 ovarian = system: IGROV1 ovarian
PC-3 prostate = system: PC-3 prostate
OVCAR-8 ovarian = system: OVCAR-8 ovarian
OVCAR-3 ovarian = system: OVCAR-3 ovarian
A498 renal = system: A498 renal
HOP-92 NSCLC = system: HOP-92 NSCLC
NCI-H23 lung = system: NCI-H23 lung
CAKI-1 renal = system: CAKI-1 renal
SNB-19 CNS = system: SNB-19 CNS
UACC-257 melanoma = system: UACC-257 melanoma

## O=C(Nc1ccc(Cl)cc1)c1cc2ccccc2cc1OP(=O)(O)O
HCC-2998 colon
  GI50: 4.19 µM
  TGI: 29.9 µM
SNB-75 CNS
  GI50: 2030 nM
  TGI: 25.2 µM
HCT-15 colon
  GI50: 3550 nM
  TGI: > 100 µM
MALME-3M melanoma
  GI50: 1.91 µM
  TGI: 7.3 µM
DU-145 prostate
  GI50: 3.94 µM
  TGI: 17.8 µM
EKVX NSCLC
  GI50: 2.82 µM
  TGI: 25.2 µM
SW-620 colon
  GI50: 4.07 µM
  TGI: 37.5 µM
MOLT-4 leukemia
  GI50: 24.8 µM
  TGI: > 100 µM
LOX IMVI melanoma
  GI50: 3520 nM
  TGI: 17.5 µM
NCI/ADR-RES ovarian
  GI50: 3510 nM
  TGI: > 100 µM
T-47D breast
  GI50: 3.98 µM
  TGI: 35.2 µM
UO-31 renal
  GI50: 3.75 µM
  TGI: > 100 µM
RXF 393 renal
  GI50: 6.64 µM
  TGI: 71.1 µM
MDA-MB-231 breast
  GI50: 3010 nM
  TGI: 16.6 µM
ACHN renal
  GI50: 3.04 µM
  TGI: 49.3 µM
SF-539 CNS
  GI50: 4.4 µM
  TGI: 19.2 µM
SK-OV-3 ovarian
  GI50: 2.51 µM
  TGI: 16.9 µM
MDA-MB-435
  GI50: 3270 nM
  TGI: 32.3 µM
SR leukemia
  GI50: 23.7 µM
  TGI: > 100 µM
HCT-116 colon
  GI50: 3000 nM
  TGI: 11.9 µM
SF-295 CNS
  GI50: 8.6 µM
  TGI: 31.9 µM
MCF7 breast
  GI50: 5.52 µM
  TGI: 40.9 µM
SK-MEL-5 melanoma
  GI50: 2890 nM
  TGI: 8.83 µM
HL-60(TB) leukemia
  GI50: > 100 µM
  TGI: > 100 µM
SK-MEL-28 melanoma
  GI50: 4.88 µM
  TGI: 55.3 µM
BT-549 breast
  GI50: 2890 nM
  TGI: 9.24 µM
OVCAR-4 ovarian
  GI50: 4.88 µM
  TGI: > 100 µM
KM12 colon
  GI50: 3.14 µM
  TGI: 13.7 µM
M14 melanoma
  GI50: 3740 nM
  TGI: 56.6 µM
K-562 leukemia
  GI50: 53.8 µM
  TGI: > 100 µM
HOP-62 NSCLC
  GI50: 3.57 µM
  TGI: 17 µM
COLO 205 colon
  GI50: 14.5 µM
  TGI: 27.8 µM
786-0 renal
  GI50: 3.59 µM
  TGI: 13.4 µM
NCI-H522 lung
  GI50: 3.29 µM
  TGI: 38.1 µM
UACC-62 melanoma
  GI50: 2660 nM
  TGI: > 100 µM
SN12C renal
  GI50: 3400 nM
  TGI: > 100 µM
SF-268 CNS
  GI50: 3.9 µM
  TGI: 40 µM
HS 578T breast
  GI50: 2960 nM
  TGI: 19.8 µM
NCI-H460 lung
  GI50: 3.43 µM
  TGI: 16.8 µM
HT29 colon
  GI50: 28.9 µM
  TGI: > 100 µM
RPMI-8226 leukemia
  GI50: 1520 nM
  TGI: 6.02 µM
NCI-H226 lung
  GI50: 2970 nM
  TGI: 16.9 µM
TK-10 renal
  GI50: 3.65 µM
  TGI: 14.1 µM
A549 NSCLC
  GI50: 4.85 µM
  TGI: > 100 µM
CCRF-CEM leukemia
  GI50: 2.82 µM
  TGI: > 100 µM
SK-MEL-2 melanoma
  GI50: 3.58 µM
  TGI: 24.4 µM
OVCAR-5 ovarian
  GI50: 6.51 µM
  TGI: 42.3 µM
U251 CNS
  GI50: 3.74 µM
  TGI: 21.3 µM
IGROV1 ovarian
  GI50: 3.81 µM
  TGI: 95.2 µM
PC-3 prostate
  GI50: 2.92 µM
  TGI: > 100 µM
OVCAR-8 ovarian
  GI50: 4730 nM
  TGI: > 100 µM
OVCAR-3 ovarian
  GI50: 3220 nM
  TGI: 11.2 µM
A498 renal
  GI50: 2.79 µM
  TGI: 19.4 µM
HOP-92 NSCLC
  GI50: 2460 nM
  TGI: 8.45 µM
NCI-H23 lung
  GI50: 2.42 µM
  TGI: 9.95 µM
CAKI-1 renal
  GI50: 1.77 µM
  TGI: 11.1 µM

## O=C(Nc1nc(-c2ccccc2Cl)cs1)c1cc(-c2ccc(Cl)cc2)nc2ccc(Cl)cc12
HCC-2998 colon
  GI50: 5.61 µM
  TGI: > 100 µM
SNB-75 CNS
  GI50: 3380 nM
  TGI: > 100 µM
HCT-15 colon
  GI50: 1930 nM
  TGI: 40 µM
MALME-3M melanoma
  GI50: 4.77 µM
  TGI: 47.7 µM
DU-145 prostate
  GI50: 4.24 µM
  TGI: > 100 µM
EKVX NSCLC
  GI50: 7.18 µM
  TGI: > 100 µM
SW-620 colon
  GI50: 4.01 µM
  TGI: > 100 µM
MOLT-4 leukemia
  GI50: 3.42 µM
  TGI: > 100 µM
LOX IMVI melanoma
  GI50: 457 nM
  TGI: 20.8 µM
NCI/ADR-RES ovarian
  GI50: 1730 nM
  TGI: > 100 µM
T-47D breast
  GI50: 22.5 µM
  TGI: > 100 µM
UO-31 renal
  GI50: 2.46 µM
  TGI: 52.6 µM
RXF 393 renal
  GI50: 10.3 µM
  TGI: > 100 µM
MDA-MB-231 breast
  GI50: 2270 nM
  TGI: 15.2 µM
ACHN renal
  GI50: 3.84 µM
  TGI: 78.2 µM
SF-539 CNS
  GI50: 2.12 µM
  TGI: 8.31 µM
SK-OV-3 ovarian
  GI50: 26 µM
  TGI: > 100 µM
MDA-MB-435
  GI50: 1710 nM
  TGI: 4.72 µM
SR leukemia
  GI50: 3.15 µM
  TGI: > 100 µM
HCT-116 colon
  GI50: 395 nM
  TGI: 13.2 µM
SF-295 CNS
  GI50: 3.16 µM
  TGI: 23.3 µM
MCF7 breast
  GI50: 0.678 µM
  TGI: > 100 µM
SK-MEL-5 melanoma
  GI50: 2510 nM
  TGI: 9.07 µM
SK-MEL-28 melanoma
  GI50: 5.61 µM
  TGI: > 100 µM
BT-549 breast
  GI50: 2440 nM
  TGI: 6.99 µM
OVCAR-4 ovarian
  GI50: 9.92 µM
  TGI: > 100 µM
KM12 colon
  GI50: 3.5 µM
  TGI: 69.5 µM
SNB-19 CNS
  GI50: 3.79 µM
  TGI: 67.2 µM
M14 melanoma
  GI50: 918 nM
  TGI: 4.76 µM
K-562 leukemia
  GI50: 3.66 µM
  TGI: > 100 µM
HOP-62 NSCLC
  GI50: 3.73 µM
  TGI: 45 µM
UACC-257 melanoma
  GI50: 14.9 µM
  TGI: > 100 µM
COLO 205 colon
  GI50: 33.6 µM
  TGI: > 100 µM
786-0 renal
  GI50: 2.84 µM
  TGI: 20 µM
NCI-H522 lung
  GI50: 3.48 µM
  TGI: 42.6 µM
UACC-62 melanoma
  GI50: 2470 nM
  TGI: 26 µM
SN12C renal
  GI50: 895 nM
  TGI: 76.9 µM
SF-268 CNS
  GI50: 2.37 µM
  TGI: 32.9 µM
HS 578T breast
  GI50: 2670 nM
  TGI: 25.7 µM
NCI-H460 lung
  GI50: 31.8 µM
  TGI: > 100 µM
HT29 colon
  GI50: 3.52 µM
  TGI: > 100 µM
RPMI-8226 leukemia
  GI50: 1380 nM
  TGI: > 100 µM
NCI-H226 lung
  GI50: 2320 nM
  TGI: 8.54 µM
TK-10 renal
  GI50: 15 µM
  TGI: > 100 µM
A549 NSCLC
  GI50: 39.2 µM
  TGI: > 100 µM
CCRF-CEM leukemia
  GI50: 3.54 µM
  TGI: > 100 µM
SK-MEL-2 melanoma
  GI50: 7.81 µM
  TGI: > 100 µM
OVCAR-5 ovarian
  GI50: 23.1 µM
  TGI: > 100 µM
U251 CNS
  GI50: 3.42 µM
  TGI: 28.6 µM
IGROV1 ovarian
  GI50: 2.99 µM
  TGI: > 100 µM
PC-3 prostate
  GI50: 3.25 µM
  TGI: 34.5 µM
OVCAR-8 ovarian
  GI50: 1190 nM
  TGI: 16.2 µM
OVCAR-3 ovarian
  GI50: 2640 nM
  TGI: 13.1 µM
A498 renal
  GI50: 27.4 µM
  TGI: > 100 µM
HOP-92 NSCLC
  GI50: 1420 nM
  TGI: 8.43 µM
NCI-H23 lung
  GI50: 3.8 µM
  TGI: > 100 µM
CAKI-1 renal
  GI50: 19.6 µM
  TGI: > 100 µM
